In ChEMBL document CHEMBL1152338, “Discorhabdins revisited: cytotoxic alkaloids from southern australian marine sponges of the genera Higginsia and Spongosorites” (J Nat Prod, 2009) one finds IC50 data, which are given here for 5 compounds.

What all share (assay type): functional, cell-based
For assay [1], the system named is HT-29. Kind of assay: Cytotoxicity against human HT-29 cells.
The subject of assay [2] is MDA-MB-231. As to the kind of experiment: Cytotoxicity against human MDA-MB-231 cells.
The subject of assay [3] is A549. Kind of assay: Cytotoxicity against human A549 cells.

In brackets after ≈: the same amount, converted by molar mass.

For `CN1CCc2cn(C)c3c2C1=CC(=O)C3=O` [DAMIRONE A], the half-maximal inhibitory concentration (IC50) in assay [1], in assay [2] and in assay [3] was 5 µg/mL (≈ 23.1 µM) in each case.

Regarding `C[N+]1=C2C=C(NCCc3ccc(O)cc3)C(=O)c3[nH]cc(c32)CC1` [MAKALUVAMINE J], the IC50 in assay [1], in assay [2] and in assay [3] was 5 µg/mL throughout.

In the case of `O=C1C[C@H]2S[C@H]3C[C@]2(C=C1Br)C1=C(N3)C(=O)c2[nH]cc3c2C1=NCC3` [DISCORHABDINE A], the IC50 in assay [1], in assay [2] and in assay [3] was 0.05 µg/mL (≈ 0.12 µM) in each case.

For the compound `O=C1C2=C(C3=NCCc4c[nH]c1c43)[C@]13C=C(Br)[C@@H](O)C[C@H]1S[C@@H](C3)N2`, the IC50 in assay [1], in assay [2] and in assay [3] was 0.1 µg/mL (≈ 0.239 µM) each time.

`O=C1C2=C3C4=[N+](CCc5c[nH]c1c54)[C@@H]1[C@H](O)C=C4S[C@@H](C[C@@]43[C@H]1O)N2`: the IC50 in assay [1], in assay [2] and in assay [3] was 0.1 µg/mL each time.

As usually defined, the IC50 is the concentration at which inhibition is half-maximal. A low value points to greater potency in that assay.
